In ChEMBL document CHEMBL1201862, “PubChem BioAssay data set” (2004):
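Protocol summary: plate cells (96-well), add compound at 5 concentrations, incubate 48 h, interpolate endpoints linearly. Abbreviation: GI50, concentration required for 50% inhibition of growth.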 The source made the active and inactive calls. No stated cut-off is given here; in the data, active = GI50 up to about 1.1 µM and inactive = higher.

How the values were obtained:
Assay in all cases: NCI anticancer screen, dose series, 48 h
OVCAR-3 = system: OVCAR-3
HCT-15 = system: HCT-15
SR = system: SR
DU-145 = system: DU-145
OVCAR-4 = system: OVCAR-4
CCRF-CEM = system: CCRF-CEM
SNB-75 = system: SNB-75
SK-MEL-28 = system: SK-MEL-28
PC-3 = system: PC-3
HOP-92 = system: HOP-92
HOP-62 = system: HOP-62
BT-549 = system: BT-549
MDA-N = system: MDA-N
SW-620 = system: SW-620
CAKI-1 = system: CAKI-1
A549 = system: A549
OVCAR-5 = system: OVCAR-5
SNB-19 = system: SNB-19
A498 = system: A498

SMILES	GI50 (OVCAR-3)	GI50 (HCT-15)	GI50 (SR)	GI50 (DU-145)	GI50 (OVCAR-4)	GI50 (CCRF-CEM)	GI50 (SNB-75)	GI50 (SK-MEL-28)	GI50 (PC-3)	GI50 (HOP-92)	GI50 (HOP-62)	GI50 (BT-549)	GI50 (MDA-N)	GI50 (SW-620)	GI50 (CAKI-1)	GI50 (A549)	GI50 (OVCAR-5)	GI50 (SNB-19)	GI50 (A498)
OCc1cn(Cc2ccccc2)c2ccccc12	0.232 µM (active)	10.8 µM	12.4 µM (inactive)	> 21.6 µM (inactive)	0.0378 µM (active)	0.488 µM (active)	1.51 µM (inactive)	> 59.3 µM (inactive)	30.1 µM (inactive)	5.51 µM (inactive)	5.32 µM (inactive)	6.59 µM (inactive)	35.6 µM (inactive)	1.36 µM (inactive)	< 0.0461 µM (active)	9.02 µM (inactive)	0.375 µM (active)	> 64.6 µM (inactive)	–
Cn1nc(/C=C\C(=O)N2CC(CCl)c3c2cc(N)c2ccccc32)cc1/C=C/C(=O)N1CC(CCl)c2c1cc(N)c1ccccc21 (configuration not stated)	< 0.01 µM (active)	0.0119 µM	< 0.01 µM (active)	< 0.01 µM (active)	< 0.01 µM (active)	< 0.01 µM (active)	< 0.01 µM (active)	< 0.01 µM (active)	< 0.01 µM (active)	–	< 0.01 µM (active)	< 0.01 µM (active)	< 0.01 µM (active)	< 0.01 µM (active)	< 0.01 µM (active)	< 0.01 µM (active)	< 0.01 µM (active)	< 0.01 µM (active)	< 0.01 µM (active)
COc1ccc2oc(=N)c(C(=O)Nc3cccc4ccccc34)cc2c1	10.4 µM (inactive)	1.61 µM	0.29 µM (active)	24 µM (inactive)	15.5 µM (inactive)	2.33 µM (inactive)	10.2 µM (inactive)	> 100 µM (inactive)	12.3 µM (inactive)	–	11 µM (inactive)	55.7 µM (inactive)	0.456 µM (active)	7.57 µM (inactive)	29.5 µM (inactive)	25.1 µM (inactive)	41.3 µM (inactive)	13.5 µM (inactive)	13.2 µM (inactive)
COc1ccc(C2=Nn3c(nc4sc(-c5ccccc5)cc4c3=O)SC2)cc1	> 100 µM (inactive)	> 100 µM	> 100 µM (inactive)	> 100 µM (inactive)	–	> 100 µM (inactive)	–	> 100 µM (inactive)	> 100 µM (inactive)	> 100 µM (inactive)	54.8 µM (inactive)	> 100 µM (inactive)	81.8 µM (inactive)	37.3 µM (inactive)	> 100 µM (inactive)	> 100 µM (inactive)	> 100 µM (inactive)	–	> 100 µM (inactive)
O=C(CNc1ccccn1)Nn1cnc2ccc(S(=O)(=O)Nc3ccccn3)cc2c1=O	> 100 µM (inactive)	> 100 µM	> 100 µM (inactive)	> 100 µM (inactive)	> 100 µM (inactive)	> 100 µM (inactive)	> 100 µM (inactive)	> 100 µM (inactive)	> 100 µM (inactive)	> 100 µM (inactive)	> 100 µM (inactive)	> 100 µM (inactive)	> 100 µM (inactive)	> 100 µM (inactive)	> 100 µM (inactive)	> 100 µM (inactive)	> 100 µM (inactive)	> 100 µM (inactive)	–
CC(C)CC(NC=O)C(=O)NC(Cc1ccccc1)NC(=O)CNC(=O)C(C)NC(=O)OC(C)(C)C (configuration not stated)	> 100 µM (inactive)	> 100 µM	> 100 µM (inactive)	> 100 µM (inactive)	> 100 µM (inactive)	–	> 100 µM (inactive)	> 100 µM (inactive)	> 100 µM (inactive)	> 100 µM (inactive)	> 100 µM (inactive)	> 100 µM (inactive)	> 100 µM (inactive)	> 100 µM (inactive)	> 100 µM (inactive)	> 100 µM (inactive)	> 100 µM (inactive)	> 100 µM (inactive)	21.9 µM (inactive)
CC(=O)N1C(Nc2cccc3nc(C)ccc23)CCN1c1ccccc1 (configuration not stated)	> 10 µM (inactive)	7.98 µM	7.19 µM (inactive)	> 10 µM (inactive)	> 10 µM (inactive)	> 10 µM (inactive)	> 10 µM (inactive)	> 10 µM (inactive)	> 10 µM (inactive)	–	> 10 µM (inactive)	> 10 µM (inactive)	> 10 µM (inactive)	5.73 µM (inactive)	> 10 µM (inactive)	> 10 µM (inactive)	> 10 µM (inactive)	> 10 µM (inactive)	–
CC1COC(c2cn[nH]c2C(N)=O)C1O (configuration not stated)	> 100 µM (inactive)	> 100 µM	> 100 µM (inactive)	> 100 µM (inactive)	> 100 µM (inactive)	> 100 µM (inactive)	> 100 µM (inactive)	> 100 µM (inactive)	> 100 µM (inactive)	–	> 100 µM (inactive)	> 100 µM (inactive)	> 100 µM (inactive)	> 100 µM (inactive)	> 100 µM (inactive)	> 100 µM (inactive)	> 100 µM (inactive)	> 100 µM (inactive)	> 100 µM (inactive)
O=c1/c(=C/c2ccc(-c3ccc(Cl)cc3Cl)o2)sc2n1[C@@H](c1ccc(Cl)cc1)C=C(c1cc(F)c(Cl)cc1Cl)N=2	–	35.6 µM	–	65.2 µM (inactive)	41.9 µM (inactive)	–	63.4 µM (inactive)	> 100 µM (inactive)	> 100 µM (inactive)	26.1 µM (inactive)	10.6 µM (inactive)	45.8 µM (inactive)	53.8 µM (inactive)	33.6 µM (inactive)	> 100 µM (inactive)	> 100 µM (inactive)	> 100 µM (inactive)	35.6 µM (inactive)	2.05 µM (inactive)
CN(C)CCc1ccnc2nc(-c3ccc4ccccc4c3)cn12	25.8 µM (inactive)	34.6 µM	57.5 µM (inactive)	45.2 µM (inactive)	27.5 µM (inactive)	33.3 µM (inactive)	–	45.6 µM (inactive)	33.7 µM (inactive)	–	56.9 µM (inactive)	23.4 µM (inactive)	29.6 µM (inactive)	21.4 µM (inactive)	35.2 µM (inactive)	> 100 µM (inactive)	47.1 µM (inactive)	69.2 µM (inactive)	–
O=C1CS(=O)(=O)C(c2cccc(Oc3ccccc3)c2)N1c1ccc(Cl)cc1 (configuration not stated)	24.2 µM (inactive)	20.2 µM	10.6 µM (inactive)	67.3 µM (inactive)	22.8 µM (inactive)	25.6 µM (inactive)	28 µM (inactive)	32.4 µM (inactive)	17.9 µM (inactive)	6.14 µM (inactive)	46.7 µM (inactive)	24.7 µM (inactive)	16.8 µM (inactive)	30 µM (inactive)	15.6 µM (inactive)	30.8 µM (inactive)	25.1 µM (inactive)	46.7 µM (inactive)	–
CC(C)(C)n1c(=O)[nH]n(C2NN=Cc3cccc4cccc2c34)c1=O (configuration not stated)	51.9 µM (inactive)	31.3 µM	11.4 µM (inactive)	> 100 µM (inactive)	42.6 µM (inactive)	11.5 µM (inactive)	21.9 µM (inactive)	57.3 µM (inactive)	31.8 µM (inactive)	–	–	21.9 µM (inactive)	26.4 µM (inactive)	47.3 µM (inactive)	27.5 µM (inactive)	18.7 µM (inactive)	69 µM (inactive)	34.9 µM (inactive)	25.5 µM (inactive)
c1ccc2c(-c3cnc(-c4c[nH]c5ccccc45)cn3)c[nH]c2c1	27.2 µM (inactive)	58.6 µM	30 µM (inactive)	> 100 µM (inactive)	> 100 µM (inactive)	–	22.6 µM (inactive)	35.6 µM (inactive)	38 µM (inactive)	28.6 µM (inactive)	37.8 µM (inactive)	> 100 µM (inactive)	19.1 µM (inactive)	18.9 µM (inactive)	74.8 µM (inactive)	> 100 µM (inactive)	46.1 µM (inactive)	58.7 µM (inactive)	> 100 µM (inactive)
O=C1C=C2CC[C@H]3[C@@H]4CC[C@H](Oc5c6ccccc6nc6ccccc56)[C@H]4CC[C@@H]3[C@H]2CC1	42.6 µM (inactive)	24.7 µM	–	87.7 µM (inactive)	52.7 µM (inactive)	18.5 µM (inactive)	28.3 µM (inactive)	48.9 µM (inactive)	33.4 µM (inactive)	13.3 µM (inactive)	57.1 µM (inactive)	20.3 µM (inactive)	21.4 µM (inactive)	51.8 µM (inactive)	36.7 µM (inactive)	54.1 µM (inactive)	> 100 µM (inactive)	> 100 µM (inactive)	–
O=C1Nc2ccc(S(=O)(=O)O)cc2/C1=N/Nc1ccccc1[N+](=O)[O-]	> 100 µM (inactive)	84.1 µM	> 100 µM (inactive)	> 100 µM (inactive)	> 100 µM (inactive)	–	> 100 µM (inactive)	> 100 µM (inactive)	> 100 µM (inactive)	> 100 µM (inactive)	> 100 µM (inactive)	> 100 µM (inactive)	> 100 µM (inactive)	> 100 µM (inactive)	> 100 µM (inactive)	> 100 µM (inactive)	42.9 µM (inactive)	> 100 µM (inactive)	70.1 µM (inactive)
CCN(CC)C(=S)SC [METHYLDIETHYL CARBAMODITHIOATE]	> 100 µM (inactive)	> 100 µM	–	> 100 µM (inactive)	–	> 100 µM (inactive)	> 100 µM (inactive)	> 100 µM (inactive)	52.5 µM (inactive)	> 100 µM (inactive)	> 100 µM (inactive)	> 100 µM (inactive)	> 100 µM (inactive)	> 100 µM (inactive)	–	> 100 µM (inactive)	> 100 µM (inactive)	> 100 µM (inactive)	> 100 µM (inactive)
